pEC50: −log10 of the molar value. Numbered stars: 1 amine (or outer) side, 2 acyl side, 3 side chain; on linkers, the order of the positions; unused ones are H or OH. Bridge positions count the residues as written; N and C are the ends. Square brackets hold non-standard residues; d marks the D form. Peptide text beside a SMILES is read from it. * marks the point of attachment. C20 diacid = O=C(O)CCCCCCCCCCCCCCCCCCC(=O)*; γGlu = O=C(O)[C@H](CCC(=O)[*:2])N[*:1]; Hyp = O=C(O)[C@@H]1C[C@@H](O)CN1
How the values were obtained:
hAM1 receptor = hAM1 receptor (Homo sapiens, UniProt O60895+Q16602); assay: cAMP assay for in vitro receptor activation, hAM1-R; assay type: cell-based; settings: cAMP assay, hAM1 receptor; read-out: hAM1R EC50
hAM1 receptor, sequence (Q16602 23-461): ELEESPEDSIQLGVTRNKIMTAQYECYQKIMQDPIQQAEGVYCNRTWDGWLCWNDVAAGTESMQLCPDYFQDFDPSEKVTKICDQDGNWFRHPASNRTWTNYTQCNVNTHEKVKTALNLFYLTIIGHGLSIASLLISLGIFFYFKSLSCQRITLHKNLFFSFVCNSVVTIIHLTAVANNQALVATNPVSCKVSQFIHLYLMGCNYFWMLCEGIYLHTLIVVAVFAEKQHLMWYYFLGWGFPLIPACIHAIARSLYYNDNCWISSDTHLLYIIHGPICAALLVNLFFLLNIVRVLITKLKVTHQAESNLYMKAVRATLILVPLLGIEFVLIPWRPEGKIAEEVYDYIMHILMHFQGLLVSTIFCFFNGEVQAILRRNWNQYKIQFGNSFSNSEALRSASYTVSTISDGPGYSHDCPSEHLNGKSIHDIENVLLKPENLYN
hAM1 receptor, sequence (O60895 43-175 partner): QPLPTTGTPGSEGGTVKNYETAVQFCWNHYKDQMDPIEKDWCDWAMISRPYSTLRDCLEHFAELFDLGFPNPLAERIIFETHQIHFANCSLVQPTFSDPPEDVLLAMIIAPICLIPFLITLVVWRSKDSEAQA
Outline: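 cAMP accumulation was measured in a monoclonal cell line stably overexpressing the hAM1 receptor. Frozen aliquots were thawed and plated at 8000 cells/well in DPBS containing 0.05% casein and 0.5 mM IBMX.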

hAMY3 receptor = biological target: T1, hAMY3 receptor (Homo sapiens, UniProt O60896+P30988); assay: cAMP assay for in vitro receptor activation, hAMY3-R; assay type: cell-based; settings: cAMP assay, hAMY3 receptor; read-out: hAMY3R EC50
T1 sequence (P30988 25-474): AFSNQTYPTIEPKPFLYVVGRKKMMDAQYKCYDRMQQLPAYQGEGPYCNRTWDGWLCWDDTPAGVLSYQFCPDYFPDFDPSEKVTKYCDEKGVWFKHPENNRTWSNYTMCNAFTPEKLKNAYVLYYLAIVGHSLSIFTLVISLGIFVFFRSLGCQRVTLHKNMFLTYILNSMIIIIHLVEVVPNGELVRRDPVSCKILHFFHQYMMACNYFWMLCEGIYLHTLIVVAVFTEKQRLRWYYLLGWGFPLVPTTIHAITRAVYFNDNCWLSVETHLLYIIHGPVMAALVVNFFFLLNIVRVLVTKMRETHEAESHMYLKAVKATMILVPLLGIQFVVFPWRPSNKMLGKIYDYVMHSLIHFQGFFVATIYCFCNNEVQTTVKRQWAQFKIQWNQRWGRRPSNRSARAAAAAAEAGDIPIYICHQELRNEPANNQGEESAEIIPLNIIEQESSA
T1 sequence (O60896 24-148 partner): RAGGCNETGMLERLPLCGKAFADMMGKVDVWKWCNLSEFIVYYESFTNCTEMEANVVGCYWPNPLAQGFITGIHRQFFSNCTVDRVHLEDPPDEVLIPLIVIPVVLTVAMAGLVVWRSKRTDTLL
Outline: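 Receptor activation was measured as cAMP accumulation in a monoclonal cell line stably overexpressing hAMY3. Stimulation with graded doses lasted 30 min at room temperature in the presence of 0.5 mM IBMX, with human amylin as positive control.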

pEC50 (hAM1 receptor)	pEC50 (hAMY3 receptor)	SMILES
6.89	10.55	CC[C@H](C)[C@H](NC(=O)[C@H](C)NC(=O)CNC(=O)[C@H](Cc1ccccc1)NC(=O)[C@H](CC(N)=O)NC(=O)[C@H](CC(N)=O)NC(=O)[C@H](CO)NC(=O)[C@H](CO)NC(=O)[C@H](Cc1c[nH]cn1)NC(=O)[C@@H](NC(=O)[C@H](CC(C)C)NC(=O)[C@H](Cc1ccccc1)NC(=O)[C@H](CC(N)=O)NC(=O)[C@H](C)NC(=O)[C@H](CC(C)C)NC(=O)[C@H](CCCNC(=N)N)NC(=O)[C@H](CCC(N)=O)NC(=O)[C@@H](NC(=O)[C@H](C)NC(=O)[C@@H]1CSSC[C@H](NC(=O)[C@@H](N)CCCCN)C(=O)N[C@@H](CC(N)=O)C(=O)N[C@@H]([C@@H](C)O)C(=O)N[C@@H](C)C(=O)N[C@@H]([C@@H](C)O)C(=O)N1)[C@@H](C)O)C(C)C)C(=O)N[C@@H](C)C(=O)N1CCC[C@H]1C(=O)N[C@@H](CO)C(=O)N[C@H](C(=O)N[C@@H](CCCCN)C(=O)N[C@H](C(=O)NCC(=O)N1CCC[C@H]1C(=O)N[C@@H](CC(N)=O)C(=O)NCC(=O)N[C@@H](Cc1ccc(O)cc1)C(N)=O)[C@@H](C)CC)[C@@H](C)O [compound 128] (H-KCNTATCATQRLANFLVHSSNNFGAIAPSTKIGPNGY-NH2; disulfide 2-7; N-terminus assumed)
< 5.30	10.74	CC[C@H](C)[C@H](NC(=O)[C@H](CCC(N)=O)NC(=O)[C@H](CCC(=O)O)NC(=O)[C@H](C)NC(=O)[C@H](CC(C)C)NC(=O)[C@H](CCCNC(=N)N)NC(=O)[C@H](CCC(N)=O)NC(=O)[C@@H](NC(=O)[C@@H](NC(=O)[C@@H]1CSSC[C@H](NC(=O)[C@H](CCCCN)NC(=O)CC[C@H](NC(=O)CCCCCCCCCCCCCCCCCCC(=O)O)C(=O)O)C(=O)N[C@@H](CC(N)=O)C(=O)N[C@@H]([C@@H](C)O)C(=O)N[C@@H](C)C(=O)N[C@@H]([C@@H](C)O)C(=O)N1)[C@@H](C)O)C(C)C)C(=O)N[C@@H](Cc1ccc(O)cc1)C(=O)N[C@@H](CCC(N)=O)C(=O)N[C@@H](Cc1ccccc1)C(=O)N[C@H](C(=O)N[C@@H](C)C(=O)N[C@@H](CCCCN)C(=O)N[C@@H](CC(=O)O)C(=O)N[C@@H](CCCCN)C(=O)N[C@@H](CC(=O)O)C(=O)N[C@@H](CC(N)=O)C(=O)N[C@H](C(=O)N[C@@H](C)C(=O)N1CCC[C@H]1C(=O)N1CCC[C@H]1C(=O)N[C@H](C(=O)N[C@@H](CC(N)=O)C(=O)N[C@H](C(=O)NCC(=O)N[C@@H](CO)C(=O)N[C@@H](CC(N)=O)C(=O)NCC(=O)N1C[C@H](O)C[C@H]1C(N)=O)C(C)C)[C@@H](C)O)C(C)C)[C@@H](C)O [compound 106] ({C20 diacid-γGlu}-KCNTATCTVQRLAEQIYQFTAKDKDNVAPPTNVGSNG[Hyp]-NH2; disulfide 2-7)
< 5.30	10.80	CC[C@H](C)[C@H](NC(=O)[C@H](CCC(N)=O)NC(=O)[C@H](CCC(=O)O)NC(=O)[C@H](C)NC(=O)[C@H](CC(C)C)NC(=O)[C@H](CCCNC(=N)N)NC(=O)[C@H](CCC(N)=O)NC(=O)[C@@H](NC(=O)[C@@H](NC(=O)[C@@H]1CSSC[C@H](NC(=O)[C@H](CCCCN)NC(=O)CC[C@H](NC(=O)CCCCCCCCCCCCCCCCCCC(=O)O)C(=O)O)C(=O)N[C@@H](C)C(=O)N[C@@H]([C@@H](C)O)C(=O)N[C@@H](C)C(=O)N[C@@H]([C@@H](C)O)C(=O)N1)[C@@H](C)O)C(C)C)C(=O)N[C@@H](Cc1ccc(O)cc1)C(=O)N[C@@H](CCC(N)=O)C(=O)N[C@@H](Cc1ccccc1)C(=O)N[C@H](C(=O)N[C@@H](CC(=O)O)C(=O)N[C@@H](CCCCN)C(=O)N[C@@H](CC(=O)O)C(=O)N[C@@H](CCCCN)C(=O)N[C@@H](CC(=O)O)C(=O)N[C@@H](CC(N)=O)C(=O)N[C@H](C(=O)N[C@@H](C)C(=O)N1CCC[C@H]1C(=O)N1CCC[C@H]1C(=O)N[C@H](C(=O)N[C@@H](CC(N)=O)C(=O)N[C@H](C(=O)NCC(=O)N[C@@H](CO)C(=O)N[C@@H](CC(N)=O)C(=O)NCC(=O)N1C[C@H](O)C[C@H]1C(N)=O)C(C)C)[C@@H](C)O)C(C)C)[C@@H](C)O [compound 97] ({C20 diacid-γGlu}-KCATATCTVQRLAEQIYQFTDKDKDNVAPPTNVGSNG[Hyp]-NH2; disulfide 2-7)

More lines, now with the values behind:

SMILES	pEC50 (hAM1 receptor)	pEC50 (hAMY3 receptor)
CC[C@H](C)[C@H](NC(=O)[C@H](CCC(N)=O)NC(=O)[C@H](CCC(=O)O)NC(=O)[C@H](C)NC(=O)[C@H](CC(C)C)NC(=O)[C@H](CCCNC(=N)N)NC(=O)[C@H](CCC(N)=O)NC(=O)[C@@H](NC(=O)[C@@H](NC(=O)[C@@H]1CSSC[C@H](NC(=O)[C@H](CCCCN)NC(=O)CC[C@H](NC(=O)CCCCCCCCCCCCCCCCCCC(=O)O)C(=O)O)C(=O)N[C@@H](CC(N)=O)C(=O)N[C@@H]([C@@H](C)O)C(=O)N[C@@H](C)C(=O)N[C@@H]([C@@H](C)O)C(=O)N1)[C@@H](C)O)C(C)C)C(=O)N[C@@H](Cc1ccc(O)cc1)C(=O)N[C@@H](CCC(N)=O)C(=O)N[C@@H](Cc1ccccc1)C(=O)N[C@H](C(=O)N[C@@H](CC(=O)O)C(=O)N[C@@H](CCCCN)C(=O)N[C@@H](C)C(=O)N[C@@H](CCCCN)C(=O)N[C@@H](CC(=O)O)C(=O)N[C@@H](CC(N)=O)C(=O)N[C@H](C(=O)N[C@@H](C)C(=O)N1CCC[C@H]1C(=O)N1CCC[C@H]1C(=O)N[C@H](C(=O)N[C@@H](CC(N)=O)C(=O)N[C@H](C(=O)NCC(=O)N[C@@H](CO)C(=O)N[C@@H](CC(N)=O)C(=O)NCC(=O)N1C[C@H](O)C[C@H]1C(N)=O)C(C)C)[C@@H](C)O)C(C)C)[C@@H](C)O [compound 122] ({C20 diacid-γGlu}-KCNTATCTVQRLAEQIYQFTDKAKDNVAPPTNVGSNG[Hyp]-NH2; disulfide 2-7)	< 5.30	10.59
CC[C@H](C)[C@H](NC(=O)[C@H](CCC(N)=O)NC(=O)[C@H](Cc1c[nH]cn1)NC(=O)[C@H](C)NC(=O)[C@H](CC(C)C)NC(=O)[C@H](CCCNC(=N)N)NC(=O)[C@H](CCC(N)=O)NC(=O)[C@@H](NC(=O)[C@@H](NC(=O)[C@@H]1CSSC[C@H](NC(=O)[C@@H](N)CCCCN)C(=O)N[C@@H](CC(N)=O)C(=O)N[C@@H]([C@@H](C)O)C(=O)N[C@@H](C)C(=O)N[C@@H]([C@@H](C)O)C(=O)N1)[C@@H](C)O)C(C)C)C(=O)N[C@@H](Cc1ccc(O)cc1)C(=O)N[C@@H](CCC(N)=O)C(=O)N[C@@H](Cc1ccccc1)C(=O)N[C@H](C(=O)N[C@@H](CC(=O)O)C(=O)N[C@@H](CCCCN)C(=O)N[C@@H](CC(=O)O)C(=O)N[C@@H](CCCCN)C(=O)N[C@@H](CC(=O)O)C(=O)N[C@@H](CC(N)=O)C(=O)N[C@H](C(=O)N[C@@H](C)C(=O)N1CCC[C@H]1C(=O)N[C@H](C(=O)N[C@@H](CC(N)=O)C(=O)N[C@H](C(=O)NCC(=O)N[C@@H](CO)C(=O)N[C@@H](CC(N)=O)C(=O)NCC(=O)N1C[C@H](O)C[C@H]1C(N)=O)C(C)C)[C@@H](C)O)C(C)C)[C@@H](C)O [compound 31] (H-KCNTATCTVQRLAHQIYQFTDKDKDNVAPTNVGSNG[Hyp]-NH2; disulfide 2-7; N-terminus assumed)	< 5.30	11.10
CC[C@H](C)[C@H](NC(=O)[C@H](CCC(N)=O)NC(=O)[C@H](Cc1c[nH]cn1)NC(=O)[C@H](C)NC(=O)[C@H](CC(C)C)NC(=O)[C@H](CCCNC(=N)N)NC(=O)[C@H](CCC(N)=O)NC(=O)[C@@H](NC(=O)[C@@H](NC(=O)[C@@H]1CSSC[C@H](NC(=O)[C@H](CCCCN)NC(=O)CC[C@H](NC(=O)CCCCCCCCCCCCCCCCCCC(=O)O)C(=O)O)C(=O)N[C@@H](CC(N)=O)C(=O)N[C@@H]([C@@H](C)O)C(=O)N[C@@H](C)C(=O)N[C@@H]([C@@H](C)O)C(=O)N1)[C@@H](C)O)C(C)C)C(=O)N[C@@H](C)C(=O)N[C@@H](CCC(N)=O)C(=O)N[C@@H](Cc1ccccc1)C(=O)N[C@H](C(=O)N[C@@H](CC(N)=O)C(=O)N[C@@H](CCCCN)C(=O)N[C@@H](CC(=O)O)C(=O)N[C@@H](CCCCN)C(=O)N[C@@H](CC(=O)O)C(=O)N[C@@H](CC(N)=O)C(=O)N[C@H](C(=O)N[C@@H](C)C(=O)N1CCC[C@H]1C(=O)N1CCC[C@H]1C(=O)N[C@H](C(=O)N[C@@H](CC(N)=O)C(=O)N[C@H](C(=O)NCC(=O)N[C@@H](CO)C(=O)N[C@@H](CC(N)=O)C(=O)NCC(=O)N1C[C@H](O)C[C@H]1C(N)=O)C(C)C)[C@@H](C)O)C(C)C)[C@@H](C)O [compound 95] ({C20 diacid-γGlu}-KCNTATCTVQRLAHQIAQFTNKDKDNVAPPTNVGSNG[Hyp]-NH2; disulfide 2-7)	< 5.30	10.80
